Laboratory results as given in patent publication US7608278B2, “Formulations of hydrophobic proteins in an immunogenic composition having improved tolerability” (priority 2003, dated 2009).
“And” between values parts separate entries of the source, which are not always exact repeats. Equal values may be shown once. Read-outs that look alike come from different tables or passages of the source.

Columns and labels:
rat footpad = assay: Rat footpad (paw-lick) pain test; assay type: in vivo, Male Sprague Dawley rats; conditions: for Mean time pain response, 0-10 min. / Mean time pain response, 10-20 min.: 8 rats per group; for Pain response in the rat footpad model (result in words): Examples 1-7 and 10, footpad injection 0.1 or 0.2 ml; for Pain in rat footpad model, survey of detergents (result in words): Example 9, injected at concentrations above the CMC for the detergent
Source text: An animal model, the rat paw-lick (footpad) model, which has previously been employed for detection of pain associated with the injection of antibiotics, was utilized (Celozzi et al. J. Pharmacol. Methods, 1980, 4:[…]; Comerski et al., Fundamental and Appl. Toxicology, 1986, 6:335-338). This model monitors the amount of time the rats spend lifting, licking, and biting the injected paw.
The “rat footpad pain” or “rat paw-lick” test or model as used herein refers to a test or model used to determine the pain induced by a specific formulation upon injection. The test consists of uniformly injecting into the footpad of rats of the same species and approximately the same weights compositions to be assessed as pain causing agents along with compositions known to cause pain at the injection site, as well as compositions known not to cause pain at the injection site. A statistically significant number of animals are to be used for each test and control formulation. After the injection, the animal is placed in a cage with mirrors and then observed by a technician (preferably blinded as to the identity of the immunogenic composition) for 20 to 30 minutes for flinching, lifting, licking, or biting of the injected paw. The amount of time spent on these pain response behaviors are recorded using a stopwatch and summed for 10 minute periods.
The phrase “less painful” as used herein refers to an alteration in the composition that leads to a reduction in the length of time or intensity, or both, of a pain response compared to that of the non-altered composition as measured by the rat footpad pain test. The phrase “50% reduction in pain” as used herein refers to a 50% reduction in the amount of time spent on pain responses as measured by the rat footpad pain test when comparing altered and unaltered immunogenic compositions administered in equal injection volumes by the same means and observed for the same length of time. The number of animals in each group is a statistically significant number. Observation of the different injection groups is preferably done by the same technician and who is blinded as to the identification of the compositions.
Rat footpad pain testing. The immunogenic composition samples were brought to room temperature prior to being administered to the animals. The animals were injected by a technician who was not involved in the monitoring of pain responses. Male Sprague Dawley rats (Crl:CD®(SD)IGS BR, 50-100 g at arrival) from Charles River Laboratories Inc. (Kingston, N.Y.) were used for all studies. The rats were acclimated at the research facility for approximately one week prior to initiation of a study, at which point they weighed 100-150 g. The paw to be injected was examined prior to injection to verify absence of any injury. The animal was then restrained in the technician's arm such that the hind legs extended forward. The right rear leg was grasped just above the hock joint and pressure was exerted to hold the paw straight out, with plantar (sole) facing upwards. Using a new 23 gauge needle for each animal, the operator inserted the bevel side up in the center of paw, parallel to the surface of the paw, until the needle was in the center of the pad. The material was then injected and the needle left in place for 3-5 seconds prior to withdrawal, to minimize leakage from the injection site. […]
The animal was then placed in a cage with 3 mirrors (adjoining sides and floor) and observed by a different technician (blinded as to the identity of the immunogenic composition) for 30 minutes for flinching, lifting, licking, or biting of the injected paw. The length of time spent on these pain response behaviors was recorded using a stopwatch and summed for 10 minute periods. […]
Statistical Analysis. Results were analyzed using an ANOVA method adjusting for multiple comparisons that compared each treatment group with control group who received buffer alone (either PBS or TBS). […]

[1] = known critical micelle concentrations, cited from earlier work
[2] = Example 1 (Table 1), 0.1 ml footpad injection, 6 rats per group
[3] = Example 4 (Table 7), 0.2 ml injection (formalin 0.1 ml), 10 rats per group
[4] = Example 6 (Table 11), 0.2 ml injection (formalin 0.1 ml), 10 rats per group
[5] = Example 7 (Table 13), 0.2 ml injection (formalin 0.1 ml), 10 rats per group
[6] = Example 9 (Table 15), concentration 5%, 100 μl
[7] = Example 9 (Table 16), concentration 5%, 100 μl
[8] = Example 9 (Table 17), concentration 5%, 100 μl
[9] = Example 9 (Table 16), concentration 0.9%, 200 μl
[10] = Example 9 (Table 17), concentration 0.8%, 200 μl
[11] = Example 9 (Table 17), concentration 7 mM, 200 μl
[12] = Example 9 (Table 16), concentration 1%, 200 μl
[13] = Example 9 (Table 16), concentration 0.025%, 200 μl
[14] = Example 9 (Table 15), detergent concentration 0.05%, 200 μl
[15] = Example 9 (Table 15), detergent concentration 0.05%, 200 μl, listed as Zw3-14
[16] = Example 9 (Table 16), concentration 0.02%, 200 μl
[17] = Example 9 (Table 17), concentration 0.5%, 200 μl

Compound: C=O [5% Formalin]
- Time pain response, Mean, 0-10 min. (rat footpad; [2]): 274 s
- Time pain response, Mean, 10-20 min. (rat footpad; [2]): 312 sec
- Time pain response, Mean, 20-30 min. (rat footpad; [2]): 450 s
- Time pain response, Median, 10-20 min. (rat footpad; [2]): 292 sec
- Time pain response, Median, 20-30 min. (rat footpad; [2]): 448 s
- Time pain response, Median, 0-10 min. (rat footpad; Example 1 (Table 1), 0.1 ml footpad injection, 6 rats per group, PBS not pyrogen-free): 311 s
- 0-10 min. time pain response, Mean (rat footpad; [3]): 178 s
- 0-10 min. time pain response, Median (rat footpad; [3]): 162 s
- 10-20 min. time pain response, Mean (rat footpad; [3]): 174 sec
- 10-20 min. time pain response, Median (rat footpad; [3]): 173 sec
- 0-10 min. time pain response, Mean (rat footpad; [4]): 225 s
- 0-10 min. time pain response, Median (rat footpad; [4]): 219 s
- 10-20 min. time pain response, Mean (rat footpad; [4]): 167 sec
- 10-20 min. time pain response, Median (rat footpad; [4]): 181 sec
- 0-10 min time pain response, Mean (rat footpad; [5]): 252 s
- 0-10 min time pain response, Median (rat footpad; [5]): 233 s
- 10-20 min. time pain response, Mean (rat footpad; [5]): 435 sec
- 10-20 min. time pain response, Median (rat footpad; [5]): 448 sec
- Mean time pain response, 0-10 min. (rat footpad; [6]): 161.3 s
- Mean time pain response, 10-20 min. (rat footpad; [6]): 313.5 sec.
- Mean time pain response, 0-10 min. (rat footpad; [7]): 114 s
- Mean time pain response, 10-20 min. (rat footpad; [7]): 218 sec.
- Mean time pain response, 0-10 min. (rat footpad; [8]): 272.5 s
- Mean time pain response, 10-20 min. (rat footpad; [8]): 280.4 sec.
- Pain response in the rat footpad model (result in words) (rat footpad): induced the highest pain response among the compositions tested

Compound: C[C@H](CCC(=O)N(CCCNC(=O)[C@H](O)[C@@H](O)[C@H](O)[C@H](O)CO)CCCNC(=O)[C@H](O)[C@@H](O)[C@H](O)[C@H](O)CO)[C@H]1CC[C@H]2[C@@H]3[C@H](O)C[C@@H]4C[C@H](O)CC[C@]4(C)[C@H]3C[C@H](O)[C@]12C [BigCHAP ®, N,N-bis(3-D-glucon-amidopropyl)cholamide]
- CMC [1]: 3 to 4 mM
- CMC (%) [1]: 0.3%

Compound: C[C@H](CCC(=O)NCCC[N+](C)(C)CCCS(=O)(=O)[O-])[C@H]1CC[C@H]2[C@@H]3[C@H](O)C[C@@H]4C[C@H](O)CC[C@]4(C)[C@H]3C[C@H](O)[C@]12C [CHAPS ®, 3-[(3-Cholamidopropyl)dimethylammonio]-1-propanesulfonate]
- CMC [1]: 6 to 10 mM
- CMC (%) [1]: 0.18-0.62%
- Mean time pain response, 0-10 min. (rat footpad; [9]): 351 s
- Mean time pain response, 10-20 min. (rat footpad; [9]): 114 sec.
- Pain in rat footpad model, survey of detergents (result in words) (rat footpad): caused significant pain
- Pain response in the rat footpad model (result in words) (rat footpad): cause considerable pain

Compound: CCCCCCCCCCCCO[C@@H]1O[C@H](CO)[C@@H](O[C@H]2O[C@H](CO)[C@@H](O)[C@H](O)[C@H]2O)[C@H](O)[C@H]1O [Dodecyl maltoside, n-Dodecyl-beta-D-maltoside]
- Mean time pain response, 0-10 min. (rat footpad; [10]): 298.0 s
- Mean time pain response, 10-20 min. (rat footpad; [10]): 141.0 sec.
- Pain in rat footpad model, survey of detergents (result in words) (rat footpad): induced pain

Compound: CCCCCCCCCC(=O)N(C)C[C@H](O)[C@@H](O)[C@H](O)[C@H](O)CO [Mega10, Decanoyl-N-methylglucamide]
- Mean time pain response, 0-10 min. (rat footpad; [11]): 28.8 s
- Mean time pain response, 10-20 min. (rat footpad; [11]): 31.0 sec.

Compound: CCCCCCCCO[C@@H]1O[C@H](CO)[C@@H](O)[C@H](O)[C@H]1O [Octyl glucoside, n-Octyl-b-D-glucopyranoside]
- Mean time pain response, 0-10 min. (rat footpad; [12]): 48 s
- Mean time pain response, 10-20 min. (rat footpad; [12]): 108 sec.
- Pain in rat footpad model, survey of detergents (result in words) (rat footpad): induced pain
- Pain response in the rat footpad model (result in words) (rat footpad): cause considerable pain

Compound: CCCCCCCC/C=C\CCCCCCCC(=O)OCCOCC(OCCO)C1OCC(OCCO)C1OCCO (stereo not shown) [TWEEN 80, Polyoxyethylene (20) sorbitan monooleate]
- CMC [1]: 0.012 mM
- CMC (%) [1]: 0.0016%
- Mean time pain response, 0-10 min. (rat footpad; [13]): 3 s
- Mean time pain response, 10-20 min. (rat footpad; [13]): 6 sec.
- Pain in rat footpad model, survey of detergents (result in words) (rat footpad): do not cause significant pain

Compound: CCCCCCCC[N+](C)(C)CCCS(=O)(=O)[O-] [Zwittergent ® 3-8, n-Octyl-N,N-dimethyl-3-ammonio-1-propanesulfonate]
- CMC [1]: 330 mM
- CMC (%) [1]: 4.6-10.9%

Compound: CCCCCCCCCC[N+](C)(C)CCCS(=O)(=O)[O-] [Zwittergent ® 3-10, n-Decyl-N,N-dimethyl-3-ammonio-1-propanesulfonate]
- CMC [1]: 25 to 40 mM
- CMC (%) [1]: 0.43-1.23%
- Mean time pain response, 0-10 min. (rat footpad; [10]): 300.6 s
- Mean time pain response, 10-20 min. (rat footpad; [10]): 260.5 sec.
- Pain in rat footpad model, survey of detergents (result in words) (rat footpad): caused significant pain

Compound: CCCCCCCCCCCC[N+](C)(C)CCCS(=O)(=O)[O-] [Zwittergent ® 3-12, n-Dodecyl-N,N-dimethyl-3-ammonio-1-propanesulfonate]
- CMC [1]: 2 to 4 mM
- CMC (%) [1]: 0.047-0.13%
- Mean time pain response, 0-10 min. (rat footpad; [14]): 295.3 s
- Mean time pain response, 10-20 min. (rat footpad; [14]): 139.8 sec.
- Pain in rat footpad model, survey of detergents (result in words) (rat footpad): caused significant pain
- Pain response in the rat footpad model (result in words) (rat footpad): responsible for the pain on injection

Compound: CCCCCCCCCCCCCC[N+](C)(C)CCCS(=O)(=O)[O-] [Zwittergent ® 3-14, n-Tetradecyl-N,N-dimethyl-3-ammonio-1-propanesulfonate]
- CMC [1]: 0.1 to 0.4 mM
- CMC (%) [1]: 0.004-0.015%
- CMC (%) ([1]; listed as Zw 3-14): 0.004%-0.015%
- Mean time pain response, 0-10 min. (rat footpad; [15]): 44.7 s and 37.8 s
- Mean time pain response, 10-20 min. (rat footpad; [15]): 33.6 sec. and 30.1 sec.
- Pain in rat footpad model, survey of detergents (result in words) (rat footpad): caused significant pain
- Pain response in the rat footpad model (result in words) (rat footpad): responsible for the pain on injection

Compound: Polyoxyethylene (35) Lauryl Ether [BRIJ]
- CMC [1]: 0.09 mM
- CMC (%) [1]: 0.011%
- Mean time pain response, 0-10 min. (rat footpad; [16]): 1 s
- Mean time pain response, 10-20 min. (rat footpad; [16]): 0 sec.
- Pain in rat footpad model, survey of detergents (result in words) (rat footpad): do not cause significant pain

Compound: Sodium deoxycholate
- Mean time pain response, 0-10 min. (rat footpad; [17]): 307.0 s
- Mean time pain response, 10-20 min. (rat footpad; [17]): 121.9 sec.

Compound: alpha-[4-(1,1,3,3-tetramethylbutyl)phenyl]-omega-hydroxypoly(oxy-1,2-ethanediyl) [TRITON ® X-100]
- CMC [1]: 0.2 to 0.9 mM
- CMC (%) [1]: 0.013-0.056%
- Mean time pain response, 0-10 min. (rat footpad; [14]): 8.5 s
- Mean time pain response, 10-20 min. (rat footpad; [14]): 11.2 sec.
- Pain in rat footpad model, survey of detergents (result in words) (rat footpad): do not cause significant pain
